System: T1, purified human Hsp90
T1 construct: purified human Hsp90 (Stressgen, SPP-770)
Experiment: Hsp90 binding assay: displacement of BODIPY-labeled geldanamycin measured by fluorescence polarization
Settings: 5 μM compound; BODIPY-GM 10 nM, Hsp90 30 nM, overnight at room temperature
Procedure, shortened: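 Purified human Hsp90 at 30 nM and 10 nM BODIPY-GM tracer were incubated overnight at room temperature with compound in 2% DMSO. The buffer was 20 mM HEPES-KOH pH 7.3, 50 mM KCl, 5 mM MgCl2, 20 mM Na2MoO4, 2 mM DTT. Background-subtracted mP values read at 485/530 nm were normalized to DMSO wells to give % inhibition.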

**Q.** `COc1ccc(OC(F)(F)F)c(Sc2nc3c(N)ncn(CCC4CCN(C(=O)CO)CC4)c-3n2)c1` [compound 103, 2-{4-[2-(6-Amino-8-{[5-methoxy-2-(trifluoromethoxy)phenyl]thio}-3H-purin-3-yl)ethyl]piperidin-1-yl}-2-oxoethanol] was tested. Which “GM displacement from purified Hsp90 measured by FP Inhibition by 5 μM compd. (%)” value did it give?
**A.** 18.0%

**Q.** With `COc1ccc(C#N)c(Sc2nc3c(N)ncn(CCC4CCN(C(=O)CO)CC4)c-3n2)c1` [compound 105, 2-({6-Amino-3-[2-(1-glycoloylpiperidin-4-yl)ethyl]-3H-purin-8-yl}thio)-4-methoxybenzonitrile] as the compound, how does the “GM displacement from purified Hsp90 measured by FP Inhibition by 5 μM compd. (%)” value read?
**A.** 17.0%

**Q.** How did the “GM displacement from purified Hsp90 measured by FP Inhibition by 5 μM compd. (%)” value turn out when `CC(C)(C)[C@H](O)C(=O)N1CCC(CCn2cnc(N)c3nc(Sc4cc5c(cc4Br)OCCO5)nc2-3)CC1` [compound 107, (2S)-1-[4-(2-{6-Amino-8-[(7-bromo-2,3-dihydro-1,4-benzodioxin-6-yl)thio]-3H-purin-3-yl}ethyl)piperidin-1-yl]-3,3-dimethyl-1-oxobutan-2-ol] was run?
**A.** 59.0%

**Q.** `C[C@H](O)C(=O)N1CCC(CCn2cnc(N)c3nc(Sc4cc5c(cc4Br)CCC5)nc2-3)CC1` [compound 109, (S)-1-(4-{2-[6-Amino-8-(6-bromo-indan-5-ylsulfanyl)-purin-3-yl]-ethyl}-piperidin-1-yl)-2-hydroxy-propan-1-one] was tested. Which “GM displacement from purified Hsp90 measured by FP Inhibition by 5 μM compd. (%)” value did it give?
**A.** 58.0%

**Q.** `CCc1ccc(Br)c(Sc2nc3c(N)ncn(CCC4CCN(C(=O)[C@H](C)O)CC4)c-3n2)c1` [compound 112, (2S)-1-[4-(2-{6-Amino-8-[(2-bromo-5-ethylphenyl)thio]-3H-purin-3-yl}ethyl)piperidin-1-yl]-1-oxopropan-2-ol] was tested. Which “GM displacement from purified Hsp90 measured by FP Inhibition by 5 μM compd. (%)” value did it give?
**A.** 13.0%

**Q.** With `C[C@H](NC(=O)OC(C)(C)C)C(=O)N1CCCC(Cn2cnc(N)c3nc(Sc4nc5cccc(Cl)c5s4)nc2-3)C1` (stereo partly drawn) [compound 116, tert-Butyl {(1S)-2-[3-({6-amino-8-[(7-chloro-1,3-benzothiazol-2-yl)thio]-3H-purin-3-yl}methyl)piperidin-1-yl]-1-methyl-2-oxoethyl}carbamate] as the compound, how does the “GM displacement from purified Hsp90 measured by FP Inhibition by 5 μM compd. (%)” value read?
**A.** 15.0%

Same assay, conditions: BODIPY-GM 10 nM, Hsp90 30 nM, overnight at room temperature; read-out: GM displacement from purified Hsp90 measured by FP IC 50

**Q.** For `N#Cc1cc2c(cc1Sc1nc3c(N)ncnc3n1CCC1CCN(C(=O)CO)CC1)OCCO2` [compound 101, 7-({6-Amino-9-[2-(1-glycoloylpiperidin-4-yl)ethyl]-9H-purin-8-yl}thio)-2,3-dihydro-1,4-benzodioxine-6-carbonitrile], which IC50 is on record?
**A.** 200 nM

**Q.** With `COc1ccc(OC(F)(F)F)c(Sc2nc3c(N)ncnc3n2CCC2CCN(C(=O)CO)CC2)c1` [compound 102, 2-{4-[2-(6-Amino-8-{[5-methoxy-2-(trifluoromethoxy)phenyl]thio}-9H-purin-9-yl)ethyl]piperidin-1-yl}-2-oxoethanol] as the compound, how does the IC50 read?
**A.** 280 nM

**Q.** How did the IC50 turn out when `COc1ccc(C#N)c(Sc2nc3c(N)ncnc3n2CCC2CCN(C(=O)CO)CC2)c1` [compound 104, 2-({6-Amino-9-[2-(1-glycoloylpiperidin-4-yl)ethyl]-9H-purin-8-yl}thio)-4-methoxybenzonitrile] was run?
**A.** 800 nM

**Q.** Which IC50 does the source give for `CC(C)(C)[C@H](O)C(=O)N1CCC(CCn2c(Sc3cc4c(cc3Br)OCCO4)nc3c(N)ncnc32)CC1` [compound 106, (2S)-1-[4-(2-{6-Amino-8-[(7-bromo-2,3-dihydro-1,4-benzodioxin-6-yl)thio]-9H-purin-9-yl}ethyl)piperidin-1-yl]-3,3-dimethyl-1-oxobutan-2-ol] here?
**A.** 70 nM

**Q.** Which IC50 does the source give for `C[C@H](O)C(=O)N1CCC(CCn2c(Sc3cc4c(cc3Br)CCC4)nc3c(N)ncnc32)CC1` [compound 108, (S)-1-(4-{2-[6-Amino-8-(6-bromo-indan-5-ylsuIfanyl)-purin-9-yl]-ethyl}-piperidin-1-yl)-2-hydroxy-propan-1-one] here?
**A.** 160 nM

**Q.** Which IC50 does the source give for `C[C@@H](O)C(=O)N1CCC(CCn2c(Sc3cc4c(cc3Br)OCCO4)nc3c(N)ncnc32)CC1` [compound 113, (2R)-1-[4-(2-{6-Amino-8-[(7-bromo-2,3-dihydro-1,4-benzodioxin-6-yl)thio]-9H-purin-9-yl}ethyl)piperidin-1-yl]-1-oxopropan-2-ol] here?
**A.** 72 nM

From patent US20100292255A1, “Therapeutic Compounds and Their Use in Treating Diseases and Disorders” (Myriad Pharmaceuticals, Inc., priority 2007, published 2010)
